# Laboratory results: patent publication US5324730A, “Phenoxyphosphoryloxymethyl cyclobutyl purines” (Nippon Kayaku Kabushiki Kaisha, priority 1990, dated 1994)
# Columns and labels:
# [1] = system: human cytomegalo-virus (HCMV); assay: Antiviral activity against HCMV, plaque reduction in human embryonic fibroblasts (Method 2); type: cell-based; settings: Human betaherpesvirus 5, Fibroblast, plaque number reduced to 50%, 9 or 10 days
# Description: Antiviral activity against human cytomegalo-virus (HCMV) which is a DNA virus was tested by the following method.
# Confluent monolayers of human embryonic fibroblasts in plastic dishes (diameter: 35 mm) were infected with 100 to 150 plaque forming units of HCMV. After an 1-hour adsorption period at 37° C., the cultures were overlaid with 2 ml of 0.5% agarose in Eagle's minimum essential medium containing 3% fetal calf serum and various concentrations of drugs. The cultures infected with HCMV were fixed and stained at 9 or 10 days after infection. The second agarose overlay containing appropriate concentrations of drugs was added 5 days after infection. Plaque numbers were counted by using a dissecting microscope at ×20 magnification. The antiviral activities of drugs were expressed in terms of median effective concentrations (EC50) which were defined as the drug concentrations that reduced the number of plaques to 50%.
# [2] = system: Herpes simplex 1 virus (HSV-1); assay: Antiviral activity against HSV-1, CPE inhibition in Vero cells (Method 1); type: cell-based; settings: Human alphaherpesvirus 1, 50% inhibition of CPE, about 72 hours, Neutral Red
# Description: Antiviral activity against Herpes simplex 1 virus (HSV-1) which is a DNA virus was tested by the following method.
# Vero cells (originated from kidney cells of African Green Monkey) were cultured in MEM medium to which 10% bovine embryo serum had been added. A cell suspension adjusted to a concentration of 200,000 cells/ml was spread onto 96 wells plate (COSTAR) and cultured for 24 hours so that the cells became confluent. To the medium drawn out was added HSV-1 virus, and it was infected for one hour. Then, the virus fluid was drawn out and cultured for about 72 hours in a fresh medium containing agents. The alive cells were stained with a staining solution containing Neutral Red and absorbance at a wavelength of 546 nm (A546) was measured to evaluate the cytopathic effect (CPE).
# CPE inhibition (%) was calculated according to the following equation: [formula] and a quantity of sample enough for 50% inhibition of the CPE due to virus was taken as IC50 (μg/ml).
# [3] = Oral absorbability: plasma concentration of Compound 1a (B^1 = 9-guanyl) in mice after oral or intravenous administration (Method 4); type: in vivo; settings: Compound 1a (B^1 = 9-guanyl) in plasma, male CDF1 mice; for AUC, intravenous injection / Tmax, intravenous injection: 75 μM/kg intravenous; for AUC, oral administration / Tmax, oral administration: 75 μM/kg oral
# Description: Oral absorbability of compounds of this invention were tested according to the following method.
# Male CDF1 mice (6-8 weeks in age) (Japan Charles Liver Co.) were used. Each substance to be tested was dissolved into physiological salt solution, and its 75 μM/kg dosage (0.1-0.5 ml/10 g dosage) was administered orally or intravenously. Ten minutes, thirty minutes, one hour and 3 hours after the administration, blood was taken from 2-3 heads of mice by means of an injection tube previously treated with heparin, and the blood was centrifuged at 3,000 rpm for 10 minutes to obtain a plasma. To 200 μl of the plasma was added 9-[2-hydroxy-3-hydroxymethylcyclobutan-1-yl]-guanine (2 μg/10 μl […]) as an internal standard. After diluting it with 4 ml of water, it was washed with 2 ml of water by the use of Ceppack C18 Cartridge (Millipore Waters Co.). It was eluted with 5 ml of methanol, concentrated to dryness, re-dissolved into 200 μl of water, and then subjected to HPLC to measure the concentration of 9-((1R,2R,3S)-2,3-bis(hydroxymethyl)-1cyclobutyl) guanine (Compound 1a, wherein B^1 =9-guanyl), from which maximum concentration (Cmax), time of maximum concentration (Tmax) and the area under the concentration curve (AUC) were determined.
# Column: Cosmosil 5C18-P (Nacalai Tesque, 250 mm×4.6 mm, i.d.)
# Solvent: 0.1. M citric acid (pH 4): acetonitrile:methanol=50:2:1
# hepatitis B virus (HBV) = assay: Antiviral activity against HBV, inhibition of HBV DNA synthesis in HB611 cells (Method 3); type: cell-based; settings: 360 h, 50% inhibition of HBV DNA synthesis, 15 days, read-out: ID50 HBV
# Description: Antiviral activity against hepatitis B virus (HBV) which is a DNA virus was tested by the following method.
# The test was done by using a cell line, HB611, that was established by transfection and continuously produces HBV like particles [Proc. Natl. Acad. Sci. USA, 84, 444-449, 1987]. HB611 cells were maintained in Dulbecco's modified Eagle medium (Gibco) supplemented with 10% fetal bovine serum (Gibco), 100 μg/ml of streptomycin, 100 IU ml of benzyl penicillin (Gibco) and 200 μg/ml of geneticin (Gibco) at 37° C. in 5% CO2 -95% air.
# The cells were seeded in 24-well plate (Corning) at a density of 3×10^4 cells/well, using 1.0 ml of the medium. After 2 days of incubation, the medium was replaced with the same medium containing the test compound. The cells were incubated for a further 15 days, during which time the medium containing the drug was exchanged every three days. The cells were then harvested and cellular DNA was prepared [Virology, 169, 213-216, 1989], and digested with restriction enzyme Hind III (Takara Shuzo Co., Ltd.). An aliquot (2-3 μg) was electrophoresed in 1.5% agarose gel, followed by blotting onto a nylon membrane Hybond-N^+ according to Southern [J. Mol. Biol., 98, 503-517, 1975]. The filter was hybridized to random primed 32p labeled HBV DNA probe, and washed twice with 2× standard saline citrate containing 0.1% SDS at 65° C. for 30 min. It was then autoradiographed, and the results were analyzed using a densitometric analyzer (Shimadzu, Chromatoscana S930).
# To quantitatively evaluate the inhibitory activity of the compounds, we measured the band areas S, D1, D2 (S, D1 and D2 represent intracellular free HBV DNA derived from replicative intermediates) and I (represents chromosomally integrated HBV DNA) by densitometric analyzer, and calculated the inhibition percentage as follows: [formula]
# In table 1, antiviral activity is represented by 50% inhibition doses (ID50) on HBV DNA synthesis.
SMILES,EC50 [1],IC50 [2],"AUC, intravenous injection [3]","Tmax, intravenous injection [3]","AUC, oral administration [3]","Tmax, oral administration [3]",IC50 (hepatitis B virus (HBV))
"Nc1nc2c(ncn2[C@@H]2C[C@H](COP(=O)(O)Oc3ccc(Cl)cc3)[C@H]2CO)c(=O)[nH]1 [Compound 56, 9-[(1R,2R,3S)-2-hydroxymethyl-3-(hydroxy(4-chlorophenoxy)phosphoryl)oxymethyl-1-cyclobutyl]-guanine]",1 to 3 µg/mL,0.699 µg/mL,3167 ng·h/mL,10 ',1762 ng·h/mL,10 ',0.1 to 1 µg/mL
"Nc1nc2c(ncn2[C@@H]2C[C@H](COP(=O)(O)Oc3ccc(F)cc3)[C@H]2CO)c(=O)[nH]1 [Compound 65, 9-[(1R,2R,3S)-2-hydroxymethyl-3-(hydroxy(4-fluorophenoxy)phosphoryl)oxymethyl-1-cyclobutyl]-guanine]",1 to 3 µg/mL,1.13 µg/mL,6373 ng·h/mL,10 ',1712 ng·h/mL,30 ',0.1 to 1 µg/mL
"Nc1nc2c(ncn2[C@@H]2C[C@H](CO)[C@H]2COP(=O)(O)Oc2ccccc2)c(=O)[nH]1 [Compound 13, 9-[(1R,2R,3S)-3-hydroxymethyl-2-(hydroxy-(phenoxy)phosphoryl)oxymethyl-1-cyclobutyl]-guanine]",–,–,2962 ng·h/mL,10 ',1122 ng·h/mL,30 ',–
"Cc1ccc(OP(=O)(O)OC[C@H]2C[C@@H](n3cnc4c(=O)[nH]c(N)nc43)[C@@H]2CO)cc1 [Compound 68, 9-[(1R,2R,3S)-2-hydroxymethyl-3-(hydroxy(4-methylphenoxy)phosphoryl)oxymethyl-1-cyclobutyl]-guanine]",0.1 to 1 µg/mL,1.26 µg/mL,4116 ng·h/mL,10 ',1754 ng·h/mL,30 ',0.1 to 1 µg/mL
"COc1ccc(OP(=O)(O)OC[C@H]2C[C@@H](n3cnc4c(=O)[nH]c(N)nc43)[C@@H]2CO)cc1 [Compound 71, 9-[(1R,2R,3S)-2-hydroxymethyl-3-(hydroxy(4-methoxyphenoxy)phosphoryl)oxymethyl-1-cyclobutyl]-guanine]",0.1 to 1 µg/mL,0.873 µg/mL,4393 ng·h/mL,10 ',1678 ng·h/mL,10 ',0.1 to 1 µg/mL
"Nc1nc2c(ncn2[C@@H]2C[C@H](COP(=O)(O)Oc3ccccc3Cl)[C@H]2CO)c(=O)[nH]1 [Compound 50, 9-[(1R,2R,3S)-2-hydroxymethyl-3-(hydroxy(2-chlorophenoxy)phosphoryl)oxymethyl-1-cyclobutyl]-guanine]",1 to 3 µg/mL,1.13 µg/mL,3177 ng·h/mL,10 ',1526 ng·h/mL,30 ',~0.1 µg/mL
"Nc1nc2c(ncn2[C@@H]2C[C@H](COP(=O)(O)Oc3ccccc3)[C@H]2CO)c(=O)[nH]1 [Compound 14, 9-[(1R,2R,3S)-2-hydroxymethyl-3-(hydroxy-(phenoxy)phosphoryl)oxymethyl-1-cyclobutyl]-guanine]",–,–,5076 ng·h/mL,10 ',2262 ng·h/mL,30 ',–
"Nc1nc2c(ncn2[C@@H]2C[C@H](COP(=O)(O)Oc3cccc(Cl)c3)[C@H]2CO)c(=O)[nH]1 [Compound 53, 9[-(1R,2R,3S)-2-hydroxymethyl-3-(hydroxy(3-chlorophenoxy)phosphoryl)oxymethyl-1-cyclobutyl]-guanine]",1 to 3 µg/mL,1.22 µg/mL,3228 ng·h/mL,10 ',1405 ng·h/mL,30 ',0.1 to 1 µg/mL
